Assay: Inhibition of calcium sulfate (gypsum) scaling, conductivity measurements
Settings: 20 ppm, supersaturated CaSO4 (3 CB); for 4, 9 and 5 screening by visual inspection under the same conditions
Protocol: The concentration of reject brine (i.e., concentrated brine (CB)) is denoted as 1 CB.
The evaluation of the newly developed scale inhibitor PZA 6 was performed in 3 CB solutions supersaturated with respect to CaSO4 as confirmed from solubility data of CaSO4. To a solution of 6 CB calcium chloride (60 mL) containing PZA 6 (40 ppm i.e. 40 mg/L) at 40° C.±1° C. was added quickly a preheated (40° C.) solution of 6 CB sodium sulfate (60 mL). The resultant 3 CB solution containing 20 ppm of PZA 6 was stirred at 300 rpm using a magnetic stir-bar, and conductivity measurements were made at an interval of every 10 min initially to quantify the effectiveness of the newly developed antiscalant. The drop in conductivity indicates the precipitation of CaSO4. Induction time was measured with a decrease in conductivity when precipitation started. Visual inspection was carefully done to see any turbidity arising from precipitation.
The reject brine in the Reverse Osmosis process has dissolved salts which precipitate in the event of exceeding their solubility limits. […]
A drop in conductivity is indicative of precipitation of CaSO4. […] To our satisfaction, there was no considerable change in conductivity for about 500 min, registering a 98% scale inhibition as calculated using eq 5: […]

C=CC[N+](CC=C)(CCCP(=O)(OCC)OCC)CCCS(=O)(=O)[O-] [Monomer 4, 3-[diallyl {3-(diethoxyphosphoryl)propyl}ammonio]propane-1-sulfonate]
CaSO4 scale inhibition (in words): neither monomers 4 and 9 nor polymer 5 gave any effective inhibition

— US9580521B1, “Process for making a poly(zwitterion/dianion)” (King Fahd University of Petroleum and Minerals, priority 2013, dated 2017)
